In patent publication US20110160279A1, “METHODS FOR TREATMENT AND PREVENTION OF OTOTOXICITY BY siRNA” (BOARD OF TRUSTEES OF SOUTHERN ILLINOIS UNIVERSITY, priority 2007, published 2011):

Columns and labels:
[1] = system: TRPV1 mRNA; experiment: Real time RT-PCR of TRPV1 mRNA in rat cochlea; type: in vivo
Description: (§1) Animal procedures and sample collection: Male Wistar rats were used for this study. Pre-ABR's were performed 2-3 days before round window application of siTRPV1 or PBS. […] The cochleas were dissected and used for the preparation of total RNA or total protein extracts, or perfused with 2.5% glutaraldehyde for morphological studies by Scanning Electron Microscopy (SEM's) or 4% paraformaldehyde for immunocytochemistry.
(§2) RNA was isolated by adding 1 ml TR1 reagent to 100 mg of cochlear or cortical tissue or 0.5 ml TR1 reagent (Sigma, St. Louis, Mo.) per well of each six well plate, according to the manufacturer's instructions.
(§3) Real time reverse transcriptase polymerase chain reaction (RT-PCR): One microgram of total RNA was converted to cDNA using iScript cDNA Synthesis Kit (Bio-Rad, Hercules, Calif.), and qRTPCR was performed as described by (Mukherjea et al, 2006). Gene specific primer pairs were used for the various reactions and mRNA expression levels were normalized to the levels of GAPDH house keeping gene.
(§4) The rodent set of primers and siRNA were based on the homologous sequences in the rat and mouse cDNA sequences. The primers were purchased from Sigma Genosys (St. Louis, Mo.). Purified siRNA duplexes were purchased from Qiagen (Valencia, Calif.).

[2] = system: NOX3 mRNA; experiment: Real time RT-PCR of NOX3 mRNA in rat cochlea; type: in vivo
Description: as §1, §2, §3, §4

[3] = system: TRPV1; type: cell-based, mouse; settings: pretreatment with 100 μM AEBSF or 10 μM DPI before cisplatin 2.5 μM
Description: Immortalized organ of Corti cells derived from the mouse, UB/OC-1 cells, were obtained from Dr. Matthew Holley (Institute of Molecular Physiology, Addison Building, Western Bank, Sheffield, UK) and cultured in RPMI 1640 supplemented with 10% Fetalclone II (Hyclone, Logan, Utah) serum and penicillin-streptomycin. Cultures were grown in a 33° C. incubator in 10% CO2.
To further study the role of ROS generated via cochlear NADPH oxidases in the induction of TRPV1 in the cochlea, in vitro experiments were performed using the organ of Corti transformed hair cell line, UB/OC1 (Rivolta et al., Proc. R. Sco. Lond., 265, 1595-1603, 1998). […] Immunolabeling was quantitated by fluorescence imaging using a confocal microscope. […] The immunofluorescence in these groups was reduced by 60 and 70%, respectively (FIG. 2B). […] The increases in expression of these genes were inhibited by DPI (10 μM), indicative of a role or NADPH oxidase activity in the induction of these subunits (FIG. 2G).

[4] = system: UB-OC1 cells; experiment: Cisplatin-induced ROS generation by DCF2DA fluorescence in UB-OC1 cells; type: cell-based, mouse; settings: pretreated with AEBSF 100 μM
[5] = system: UB-OC1 cells; experiment: Cell viability and morphology of UB-OC1 cultures; type: cell-based, mouse; settings: 100 μM AEBSF or 10 μM DPI
[6] = system: p53; experiment: p53 protein expression in UB/OC-1 cells; type: cell-based, mouse; settings: pretreatment (capsazepine 10 μM; BAPTA-AM 30 min) before cisplatin
Description: (§5) The increases in these proteins were attenuated by capsazepine (10 μM), implicating TRPV1 in this process.

[7] = system: Bax; experiment: Bax protein expression in UB/OC-1 cells; type: cell-based, mouse; settings: pretreatment (capsazepine 10 μM; BAPTA-AM 30 min) before cisplatin
Description: as §5

Compound: O=C(O)CCCC[C@@H]1CCSS1 (racemic) [lipoic acid]
- effect on basal expression of TRPV1 ([1]; rat cochlea, lipoic acid alone, not statistically significant): tendency to reduce basal expression of TRPV1
- effect on cisplatin-induced TRPV1 expression in vivo ([1]; rats pretreated with lipoic acid before cisplatin, 72 hrs): completely abolished
- effect on basal expression of NOX3 ([2]; lipoic acid alone): significantly reduced
- effect on the increase in NOX3 by cisplatin ([2]; lipoic acid pretreatment, cisplatin 72 hrs): attenuated

Compound: NCCc1ccc(S(=O)(=O)F)cc1 [AEBSF]
- reduction of TRPV1 immunofluorescence [3]: 60%
- effect on cisplatin-induced increase in ROS generation [4]: abolished
- effect on cell viability over a 24 h period [5]: did not significantly affect cell viability

Compound: CC(=O)OCOC(=O)CN(CC(=O)OCOC(C)=O)c1ccccc1OCCOc1ccccc1N(CC(=O)OCOC(C)=O)CC(=O)OCOC(C)=O [BAPTA-AM]
- effect on cisplatin-induced increase in p53 [6]: down-regulated the expression of these pro-apoptotic genes to control levels
- effect on cisplatin-induced increase in Bax [7]: substantial reduction
